Measured values as given in ChEMBL document CHEMBL3091411, “Quercetin inhibits inflammatory bone resorption in a mouse periodontitis model” (J Nat Prod, 2013).
The source made the active and inactive calls. The rule behind the calls is not given here.

What was measured:
[1] = tested on: Aggregatibacter actinomycetemcomitans; assay: Antimicrobial activity against Aggregatibacter actinomycetemcomitans infected in Balb/c mouse measured per 10^6 colonies at 100 mg/kg, sc measured 14 days post-infection by Gram staining technique (reference value: 6.41 +/- 0.96); format: functional; details: route subcutaneous
[2] = tested on: Mus musculus; assay: Antiperiodontitic activity in Aggregatibacter actinomycetemcomitans infected Balb/c mouse model assessed as downregulation of RANKL expression at 100 mg/kg, sc for 15 days post Aggregatibacter actinomycetemcomitans-challenge by Western blotting analysis; format: functional, organism-based; parameters: dose 100 mg/kg
[3] = tested on: Mus musculus; assay: Antiinflammatory activity in Aggregatibacter actinomycetemcomitans infected Balb/c mouse model assessed as inhibition of IL-1beta production at 100 mg/kg, sc for 15 days post Aggregatibacter actinomycetemcomitans-challenge by ELISA; format: functional, organism-based; parameters: dose 100 mg/kg
[4] = tested on: Mus musculus; assay: Antiinflammatory activity in Aggregatibacter actinomycetemcomitans infected Balb/c mouse model assessed as inhibition of IL-17 production at 100 mg/kg, sc for 15 days post Aggregatibacter actinomycetemcomitans-challenge by ELISA; format: functional, organism-based; parameters: dose 100 mg/kg
[5] = tested on: Mus musculus; assay: Antiperiodontitic activity in Aggregatibacter actinomycetemcomitans infected Balb/c mouse model assessed as inhibition of alveolar bone loss at 100 mg/kg, sc for 15 days post Aggregatibacter actinomycetemcomitans-challenge by methylene blue staining-based microscopic analysis; format: functional, organism-based; parameters: dose 100 mg/kg
[6] = tested on: Mus musculus; assay: Antiinflammatory activity in Aggregatibacter actinomycetemcomitans infected Balb/c mouse model assessed as inhibition of TNFalpha production at 100 mg/kg, sc for 15 days post Aggregatibacter actinomycetemcomitans-challenge by ELISA; format: functional, organism-based; parameters: dose 100 mg/kg
[7] = tested on: Mus musculus; assay: Effect on OPG expression in Aggregatibacter actinomycetemcomitans infected Balb/c mouse model at 100 mg/kg, sc for 15 days post Aggregatibacter actinomycetemcomitans-challenge by Western blotting analysis; format: ADME, organism-based; parameters: dose 100 mg/kg, route subcutaneous; details: in vivo, 360 h
[8] = tested on: Mus musculus; assay: Antiperiodontitic activity in Aggregatibacter actinomycetemcomitans infected Balb/c mouse model assessed as downregulation of ICAM-1 expression at 100 mg/kg, sc for 15 days post Aggregatibacter actinomycetemcomitans-challenge by Western blotting analysis; format: functional, organism-based; parameters: dose 100 mg/kg

With `O=c1c(O)c(-c2ccc(O)c(O)c2)oc2cc(O)cc(O)c12` [QUERCETIN] as the compound, how does the CFU [1] read?
The CFU was 5.86.

And the Activity [2]?
The Activity was “Active”.

What about the inhibition [3] of the same compound?
The inhibition was “Active”.

What about the inhibition [4] of the same compound?
Its inhibition is “Active”.

What about the inhibition [5] of the same compound?
Its inhibition is “Active”.

And the inhibition [6]?
The inhibition was “Active”.

What about the Activity [7] of the same compound?
Its Activity is “Non-toxic”.

And the Activity [8]?
The Activity was “Active”.
